Measured values reported in the NIST ThermoML archive (doi:10.1021/je060271a).

Conditions: 343.15 K, Liquid, Vibrating tube method

CCCCCCCC(=O)OCC(COC(=O)CCCCCCC)(COC(=O)CCCCCCC)COC(=O)CCCCCCC [pentaerythritol tetraoctanoate]
Conditions | mass density [kg/m3]
22002 kPa | 941.5
22028 kPa | 941.4
22054 kPa | 941.3
22085 kPa | 941.4
22111 kPa | 941.4
22142 kPa | 941.5
22168 kPa | 941.4
22195 kPa | 941.6
22221 kPa | 941.4
22248 kPa | 941.5
22280 kPa | 941.6
22307 kPa | 941.6
22338 kPa | 941.5
22365 kPa | 941.8
22392 kPa | 941.7
22424 kPa | 941.7
22451 kPa | 941.7
22478 kPa | 941.5
22510 kPa | 941.7
22537 kPa | 941.7
22564 kPa | 941.8
22599 kPa | 941.9
22626 kPa | 941.8
22654 kPa | 941.9
22682 kPa | 941.9
22709 kPa | 941.7
22742 kPa | 941.8
22770 kPa | 941.8
22798 kPa | 941.8
22831 kPa | 942
22858 kPa | 941.8
22892 kPa | 941.9
22920 kPa | 941.9
22949 kPa | 942
23008 kPa | 942
23042 kPa | 941.9
23070 kPa | 942.1
23098 kPa | 942.1
23132 kPa | 942.1
23161 kPa | 942.1
23190 kPa | 942.1
23224 kPa | 942.1
23253 kPa | 942.1
23281 kPa | 942.2
23316 kPa | 942.2
23344 kPa | 942.1
23374 kPa | 942.3
23409 kPa | 942.2
23438 kPa | 942.4
23468 kPa | 942.1
23497 kPa | 942.3
23532 kPa | 942.2
23562 kPa | 942.4
23597 kPa | 942.4
23627 kPa | 942.3
23656 kPa | 942.5
23686 kPa | 942.4
23722 kPa | 942.5
23753 kPa | 942.5
23777 kPa | 942.5
23819 kPa | 942.5
23849 kPa | 942.6
23886 kPa | 942.6
23916 kPa | 942.5
23946 kPa | 942.5
23984 kPa | 942.5
24014 kPa | 942.6
24045 kPa | 942.8
24076 kPa | 942.6
24113 kPa | 942.7
24144 kPa | 942.6
24182 kPa | 942.7
24245 kPa | 942.8
24283 kPa | 942.8
24314 kPa | 942.8
24345 kPa | 942.8
24377 kPa | 942.9
24415 kPa | 942.8
24447 kPa | 942.9
24480 kPa | 942.9
24518 kPa | 943
24550 kPa | 942.9
24589 kPa | 943
24622 kPa | 943.1
24655 kPa | 943.1
24688 kPa | 943.1
24721 kPa | 943
24761 kPa | 943.1
24794 kPa | 943.1
24828 kPa | 943.1
24867 kPa | 943.1
24894 kPa | 943.3
24934 kPa | 943.3
24961 kPa | 943.1
24994 kPa | 943.2
25028 kPa | 943.2
25069 kPa | 943.3
25097 kPa | 943.2
25138 kPa | 943.4
25185 kPa | 943.5
25226 kPa | 943.3
25260 kPa | 943.3
25294 kPa | 943.5
25335 kPa | 943.5
25370 kPa | 943.5
25404 kPa | 943.5
25445 kPa | 943.6
25480 kPa | 943.5
25523 kPa | 943.6
25553 kPa | 943.7
25596 kPa | 943.5
25632 kPa | 943.8
25667 kPa | 943.6
25703 kPa | 943.7
25746 kPa | 943.8
25781 kPa | 943.7
25824 kPa | 943.7
25860 kPa | 943.7
25896 kPa | 943.8
25933 kPa | 944
25977 kPa | 943.9
26014 kPa | 943.9
26054 kPa | 943.9
26091 kPa | 943.9
26135 kPa | 943.9
26172 kPa | 944
26210 kPa | 944.2
26247 kPa | 944.1
26292 kPa | 944.1
26329 kPa | 944.1
26367 kPa | 944.2
26412 kPa | 944.1
26449 kPa | 944.1
26495 kPa | 944.1
26534 kPa | 944.1
26573 kPa | 944
26612 kPa | 944.2
26696 kPa | 944.4
26735 kPa | 944.4
26781 kPa | 944.3
26820 kPa | 944.4
26859 kPa | 944.4
26906 kPa | 944.4
26945 kPa | 944.4
26985 kPa | 944.4
27032 kPa | 944.6
27072 kPa | 944.4
27113 kPa | 944.7
27160 kPa | 944.5
27200 kPa | 944.7
27241 kPa | 944.7
27290 kPa | 944.7
27331 kPa | 944.6
27371 kPa | 944.7
27412 kPa | 944.8
27462 kPa | 944.7
27503 kPa | 944.8
27544 kPa | 944.8
27594 kPa | 944.9
27637 kPa | 944.8
27680 kPa | 944.9
27721 kPa | 944.9
27772 kPa | 945
27815 kPa | 945.1
27857 kPa | 945
27909 kPa | 945
27951 kPa | 945
28003 kPa | 945
28046 kPa | 945.1
28089 kPa | 945.1
28141 kPa | 945.3
28185 kPa | 945.2
28231 kPa | 945.3
28277 kPa | 945.4
28332 kPa | 945.4
28378 kPa | 945.4
28426 kPa | 945.4
28478 kPa | 945.5
28513 kPa | 945.4
28545 kPa | 945.5
28583 kPa | 945.4
28615 kPa | 945.4
28647 kPa | 945.5
28680 kPa | 945.5
28720 kPa | 945.7
28753 kPa | 945.6
28786 kPa | 945.6
28818 kPa | 945.8
28858 kPa | 945.7
28890 kPa | 945.7
28923 kPa | 945.7
28963 kPa | 945.7
28996 kPa | 945.8
29036 kPa | 945.8
29070 kPa | 945.9
29104 kPa | 945.8
29138 kPa | 945.9
29179 kPa | 945.9
29207 kPa | 945.8
29247 kPa | 946
29281 kPa | 945.9
29321 kPa | 945.9
29355 kPa | 946
29389 kPa | 946
29424 kPa | 946
29465 kPa | 946
29500 kPa | 946
29534 kPa | 946.1
29570 kPa | 946.1
29612 kPa | 946.1
29648 kPa | 946.2
29685 kPa | 946.2
29720 kPa | 946.2
29754 kPa | 946.3
29797 kPa | 946.2
29832 kPa | 946.2
29874 kPa | 946.2
29910 kPa | 946.3
29945 kPa | 946.3
29987 kPa | 946.4
30024 kPa | 946.4
30060 kPa | 946.5
30096 kPa | 946.4
30139 kPa | 946.4
30175 kPa | 946.5
30212 kPa | 946.4
30255 kPa | 946.6
30291 kPa | 946.5
30327 kPa | 946.7
30371 kPa | 946.5
30525 kPa | 946.7
30562 kPa | 946.8
30607 kPa | 946.7
30646 kPa | 946.7
30682 kPa | 946.8
30727 kPa | 946.8
30764 kPa | 946.9
30802 kPa | 946.8
30847 kPa | 946.8
30885 kPa | 946.9
30923 kPa | 947
31006 kPa | 946.9
31045 kPa | 947
31091 kPa | 947
31130 kPa | 947
31169 kPa | 947.2
31208 kPa | 947.1
31255 kPa | 947.1
31294 kPa | 947.2
31341 kPa | 947.1
31380 kPa | 947.2
31411 kPa | 947.1
31459 kPa | 947.2
31506 kPa | 947.2
31538 kPa | 947.4
31586 kPa | 947.3
31633 kPa | 947.5
31674 kPa | 947.4
31717 kPa | 947.3
31758 kPa | 947.5
31807 kPa | 947.4
31848 kPa | 947.5
31898 kPa | 947.5
31942 kPa | 947.5
31985 kPa | 947.6
32036 kPa | 947.6
32074 kPa | 947.7
32104 kPa | 947.6
32141 kPa | 947.6
32172 kPa | 947.8
32204 kPa | 947.8
32242 kPa | 947.7
32273 kPa | 947.7
32305 kPa | 947.9
32342 kPa | 947.7
32374 kPa | 947.9
32405 kPa | 947.8
32443 kPa | 947.8
32475 kPa | 947.8
32507 kPa | 947.8
32545 kPa | 947.9
32577 kPa | 947.9
32610 kPa | 948
32644 kPa | 948
32671 kPa | 948
32710 kPa | 948
32736 kPa | 948.1
32762 kPa | 948.1
32840 kPa | 948
32885 kPa | 948.1
32925 kPa | 948
32958 kPa | 948.2
32991 kPa | 948.3
33030 kPa | 948.3
33064 kPa | 948.3
33099 kPa | 948.3
